Test results taken from ChEMBL document CHEMBL3808317, “Straightforward conversion of decoquinate into inexpensive tractable new derivatives with significant antimalarial activities” (Bioorg Med Chem Lett, 2016).
Converted amounts (≈) assume the structure as drawn. The source made the active and inactive calls. No cut-off for these calls is given here.

Columns and labels:
Plasmodium falciparum [1] = experiment: Antimalarial activity against chloroquine-sensitive asexual Plasmodium falciparum NF54 infected in human erythrocytes assessed as inhibition of parasite proliferation at 1 uM after 96 hrs by SYBR Green I fluorescence based assay relative to control; assay type: functional; conditions: NF54, 96 h
Plasmodium falciparum [2] = experiment: Antimalarial activity against chloroquine-sensitive asexual Plasmodium falciparum NF54 infected in human erythrocytes assessed as inhibition of parasite proliferation at 5 uM after 96 hrs by SYBR Green I fluorescence based assay relative to control; assay type: functional; conditions: NF54, 96 h
[3] = Selectivity index, ratio of IC50 for human WI38 cells to IC50 chloroquine-sensitive asexual Plasmodium falciparum NF54 infected in human erythrocytes; assay type: toxicity, cell-based, WI-38; conditions: read-out: Ratio IC50
Plasmodium falciparum [4] = experiment: Antimalarial activity against chloroquine-sensitive asexual Plasmodium falciparum NF54 infected in human erythrocytes assessed as inhibition of parasite proliferation after 96 hrs by SYBR Green I fluorescence based assay; assay type: functional, organism-based; conditions: NF54, 96 h
[5] = Resistance index, ratio of IC50 for multi-drug-resistant Plasmodium falciparum W2 infected in human erythrocytes to IC50 for chloroquine-sensitive asexual Plasmodium falciparum NF54 infected in human erythrocytes; assay type: functional
[6] = Cytotoxicity against human WI38 cells assessed as growth inhibition after 48 hrs by sulforhodamine B assay; assay type: cell-based; conditions: WI-38, 48 h
Plasmodium falciparum [7] = experiment: Antimalarial activity against multidrug resistant Plasmodium falciparum K1 infected in human erythrocytes assessed as inhibition of parasite proliferation after 96 hrs by SYBR Green I fluorescence based assay; assay type: functional, organism-based; conditions: K1, 96 h
Plasmodium falciparum [8] = experiment: Antimalarial activity against multidrug resistant Plasmodium falciparum W2 infected in human erythrocytes assessed as inhibition of parasite proliferation after 96 hrs by SYBR Green I fluorescence based assay; assay type: functional, organism-based; conditions: W2, 96 h
[9] = Resistance index, ratio of IC50 for multi-drug-resistant Plasmodium falciparum K1 infected in human erythrocytes to IC50 for chloroquine-sensitive asexual Plasmodium falciparum NF54 infected in human erythrocytes; assay type: functional
Plasmodium falciparum [10] = experiment: Antimalarial activity against chloroquine-sensitive asexual Plasmodium falciparum NF54 infected in human erythrocytes assessed as inhibition of parasite proliferation at 100 to 500 nM after 96 hrs by SYBR Green I fluorescence based assay; assay type: functional, organism-based
[11] = Lipophilicity, log P of compound; assay type: physicochemical; conditions: octanol/water
[12] = Solubility of compound in water; assay type: physicochemical
[13] = Acidic dissociation constant, pKa of compound; assay type: physicochemical

SMILES	inhibition at 1 µM (Plasmodium falciparum [1]) [%]	inhibition at 5 µM (Plasmodium falciparum [2]) [%]	selectivity ratio [3]	IC50 (Plasmodium falciparum [4]) [µM]	Ratio IC50 [5]	IC50 [6] [µM]	IC50 (Plasmodium falciparum [7]) [µM]	IC50 (Plasmodium falciparum [8]) [µM]	Ratio IC50 [9]	inhibition (Plasmodium falciparum [10])	logP [11]	solubility [12] [µg/mL]	pKa [13]
CCCCCCCCCCOc1cc2c(=O)c(C(=O)OCC)cn(S(C)(=O)=O)c2cc1OCC	> 70	> 50	–	–	–	–	–	–	–	–	–	–	–
CCCCCCCCCCOc1cc2c(=O)c(C(=O)NCc3ccc(F)cc3)c[nH]c2cc1OCC	> 70	> 50	> 3020	0.0331	0.2	> 100	0.0631	0.0086	1.9	Active	–	–	–
CCCCCCCCCCOc1cc2c(=O)c(C(=O)NCc3ccccc3F)c[nH]c2cc1OCC	> 70	> 50	–	–	–	–	–	–	–	–	–	–	–
CCCCCCCCCCOc1cc2c(=O)c(C(=O)OCC)cn(C(=O)N3CCCCC3)c2cc1OCC	> 70	> 50	465	0.0183	1.5	8.5	0.0891	0.0282	4.9	Active	–	–	–
CCCCCCCCCCOc1cc2c(=O)c(C(=O)NCCOC)c[nH]c2cc1OCC	> 70	> 50	–	–	–	–	–	–	–	–	–	–	–
CCCCCCCCCCOc1cc2c(=O)c(C(=O)OCC)cn(C(C)=O)c2cc1OCC	> 70	> 50	> 20400	0.0049	1.7	> 100	0.012	0.0085	2.5	Active	–	–	–
CCCCCCCCCCOc1cc2c(=O)c(C(=O)N3CCOCC3)cn(C(C)=O)c2cc1OCC	> 70	> 50	–	–	–	–	–	–	–	–	–	–	–
CO[C@H]1O[C@@H]2O[C@@]3(C)CC[C@H]4[C@H](C)CC[C@@H]([C@H]1C)[C@@]24OO3 [ARTEMETHER]	–	–	–	0.00577	0.8	–	0.00726	0.0045	1.3	–	–	–	–
CCCCCCCCCCOc1cc2c(=O)c(C(=O)OCC)cn(C(=O)N(C)C)c2cc1OCC	> 70	> 50	–	–	–	–	–	–	–	–	–	–	–
C[C@H]1[C@H](OC(=O)CCC(=O)O)O[C@@H]2O[C@@]3(C)CC[C@H]4[C@H](C)CC[C@@H]1[C@@]24OO3 [ARTESUNATE]	–	–	> 12700	0.00788	0.8	> 100	0.00897	0.00677	1.4	–	–	–	–
CCCCCCCCCCOc1cc2c(=O)c(C(=O)OCC)cn(C(=O)CC)c2cc1OCC	> 70	> 50	> 6490	0.0154	0.8	> 100	0.0489	0.0115	3.2	Active	–	–	–
CCCCCCCCCCOc1cc2c(=O)c(C(=O)NCCCn3ccnc3)c[nH]c2cc1OCC	> 70	> 50	–	–	–	–	–	–	–	–	–	–	–
CCCCCCCCCCOc1cc2c(=O)c(C(=O)NCc3ccco3)c[nH]c2cc1OCC	> 70	> 50	–	–	–	–	–	–	–	–	–	–	–
CCCCCCCCCCOc1cc2c(=O)c(C(=O)NCCOCCO)c[nH]c2cc1OCC	> 70	> 50	1090	0.0404	0.5	43.9	0.0648	0.0185	1.6	Active	–	–	–
CCCCCCCCCCOc1cc2c(=O)c(C(=O)NCCN(C)C)c[nH]c2cc1OCC	> 70	> 50	–	–	–	–	–	–	–	–	–	–	–
CCCCCCCCCCOc1cc2c(O)c(C(=O)OCC)cnc2cc1OCC [DECOQUINATE]	> 70	> 50	> 3760	0.0266	0.6	> 100	0.0649	0.0154	2.4	Active	8.19	0.06 (≈ 0.144 µM)	9.81
CCCCCCCCCCOc1cc2c(=O)c(C(=O)N3CCOCC3)cn(S(=O)(=O)C3CC3)c2cc1OCC	> 70	> 50	–	–	–	–	–	–	–	–	–	–	–
CC[C@H]1CN2CCc3cc(OC)c(OC)cc3[C@@H]2C[C@@H]1C[C@H]1NCCc2cc(OC)c(OC)cc21 [EMETINE]	–	–	–	–	–	0.05	–	–	–	–	–	–	–
CCCCCCCCCCOc1cc2c(=O)c(C(=O)OCC)cn(S(=O)(=O)C3CC3)c2cc1OCC	> 70	> 50	–	–	–	–	–	–	–	–	–	–	–
